According to US20220340629A1, “Myosin Derived Peptides and Related Compounds with Anticoagulant Activities” (THE SCRIPPS RESEARCH INSTITUTE, priority 0001, published 2022):
Non-standard residues stand in square brackets, D forms with d. Residues, ends and D or L forms follow the SMILES beside them. NMeH = CN[C@@H](Cc1c[nH]cn1)C(=O)O; NMeI = CC[C@H](C)[C@H](NC)C(=O)O; NMeA = CN[C@@H](C)C(=O)O; Nle = CCCC[C@H](N)C(=O)O

Each molecule was assayed on skeletal muscle myosin-supported prothrombin activation by factors Xa and Va (assay: Assay 1A: prothrombin activation by factor Xa/factor Va/myosin in purified system). Settings: up to 65 μM; data not shown.
Assay type: biochemical, human factors Xa and Va; rabbit skeletal muscle myosin

Molecule | inhibition of myosin's procoagulant activity
Cc1ccc2c(c1)C(=O)C1(O)CCN(c3ccccc3)C1=N2 (single isomer, unassigned; (-)) [(-) blebbistatin, reference compound] | did not inhibit

Same assay, conditions: up to 0.7 mM; data not shown

Molecule | inhibition of myosin's procoagulant activity
Cc1ccc(S(=O)(=O)NCc2ccccc2)cc1 [N-benzyl-p-toluene sulfonamide, reference compound] | did not inhibit

What follows are molecules tested against skeletal muscle myosin-supported prothrombin activation by factors Xa and Va (Homo sapiens, UniProt P00742) in the same assay as above. Settings: purified system, prothrombin activation with myosin; read-out: 1A (+ myosin) IC50.
skeletal muscle myosin-supported prothrombin activation by factors Xa and Va (Homo sapiens, UniProt P00742), sequence (P00742 41-179): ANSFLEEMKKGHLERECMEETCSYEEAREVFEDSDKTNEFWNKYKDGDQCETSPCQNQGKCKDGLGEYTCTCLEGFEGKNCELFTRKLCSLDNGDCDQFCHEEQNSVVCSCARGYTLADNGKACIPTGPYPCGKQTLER
skeletal muscle myosin-supported prothrombin activation by factors Xa and Va (Homo sapiens, UniProt P00742), sequence (P00742 235-488): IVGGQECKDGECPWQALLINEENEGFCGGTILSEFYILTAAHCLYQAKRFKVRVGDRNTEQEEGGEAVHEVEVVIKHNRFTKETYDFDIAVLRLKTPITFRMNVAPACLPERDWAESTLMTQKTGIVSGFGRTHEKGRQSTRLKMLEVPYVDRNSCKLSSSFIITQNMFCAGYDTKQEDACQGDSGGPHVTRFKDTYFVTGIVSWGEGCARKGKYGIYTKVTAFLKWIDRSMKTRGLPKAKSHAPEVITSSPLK
skeletal muscle myosin-supported prothrombin activation by factors Xa and Va (Homo sapiens, UniProt P00742), sequence (P12259 29-737 partner): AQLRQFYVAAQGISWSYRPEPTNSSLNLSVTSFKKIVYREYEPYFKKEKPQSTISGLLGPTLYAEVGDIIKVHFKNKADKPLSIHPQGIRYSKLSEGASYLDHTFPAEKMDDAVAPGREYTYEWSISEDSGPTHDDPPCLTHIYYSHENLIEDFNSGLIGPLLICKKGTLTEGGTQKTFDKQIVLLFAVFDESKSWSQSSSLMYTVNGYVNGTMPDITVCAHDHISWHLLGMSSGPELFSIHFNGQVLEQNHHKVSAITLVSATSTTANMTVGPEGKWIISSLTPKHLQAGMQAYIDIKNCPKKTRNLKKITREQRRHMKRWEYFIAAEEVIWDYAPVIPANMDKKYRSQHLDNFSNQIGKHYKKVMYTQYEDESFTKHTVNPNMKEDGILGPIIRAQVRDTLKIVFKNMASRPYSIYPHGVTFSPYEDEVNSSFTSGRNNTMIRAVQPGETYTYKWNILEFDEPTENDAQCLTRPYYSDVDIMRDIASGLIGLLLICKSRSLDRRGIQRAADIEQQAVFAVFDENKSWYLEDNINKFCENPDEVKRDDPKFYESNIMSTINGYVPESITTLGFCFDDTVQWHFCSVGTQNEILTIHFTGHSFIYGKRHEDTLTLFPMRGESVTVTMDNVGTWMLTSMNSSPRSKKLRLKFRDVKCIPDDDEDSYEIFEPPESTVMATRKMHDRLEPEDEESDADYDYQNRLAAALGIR
skeletal muscle myosin-supported prothrombin activation by factors Xa and Va (Homo sapiens, UniProt P00742), sequence (P12259 1574-2224 partner): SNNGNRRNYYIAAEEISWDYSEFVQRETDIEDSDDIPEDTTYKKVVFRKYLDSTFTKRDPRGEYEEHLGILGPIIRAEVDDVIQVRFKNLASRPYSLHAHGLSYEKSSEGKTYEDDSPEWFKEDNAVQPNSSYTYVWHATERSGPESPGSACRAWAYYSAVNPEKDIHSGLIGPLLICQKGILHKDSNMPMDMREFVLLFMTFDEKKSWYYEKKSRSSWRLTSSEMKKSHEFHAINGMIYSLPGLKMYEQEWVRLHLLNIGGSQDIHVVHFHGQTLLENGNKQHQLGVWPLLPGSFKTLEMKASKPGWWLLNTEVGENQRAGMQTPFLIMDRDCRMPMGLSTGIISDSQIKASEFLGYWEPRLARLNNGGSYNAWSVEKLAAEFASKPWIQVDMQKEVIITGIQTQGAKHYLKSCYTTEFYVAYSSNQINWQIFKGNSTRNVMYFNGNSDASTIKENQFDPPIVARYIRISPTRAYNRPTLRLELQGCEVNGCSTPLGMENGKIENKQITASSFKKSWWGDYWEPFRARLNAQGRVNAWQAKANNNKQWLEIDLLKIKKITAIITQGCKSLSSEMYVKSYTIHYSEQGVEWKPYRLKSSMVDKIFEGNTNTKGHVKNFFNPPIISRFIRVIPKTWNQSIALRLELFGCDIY
Assay type: biochemical, human factors Xa and Va; rabbit skeletal muscle myosin

Molecule | IC50 [µM]
CCCC[C@H](NC(=O)[C@H](Cc1c[nH]c2ccccc12)NC(=O)[C@@H]1CCCN1C(=O)[C@H](Cc1c[nH]c2ccccc12)NC(=O)[C@H](Cc1c[nH]cn1)NC(=O)[C@H](CCCCN)NC(=O)[C@@H](NC(=O)[C@H](CC(N)=O)NC(=O)[C@H](CCCC)NC(=O)[C@H](Cc1ccccc1)NC(=O)[C@H](CO)NC(=O)[C@H](CCCNC(=N)N)NC(=O)[C@@H](NC(=O)[C@H](CC(N)=O)NC(=O)[C@H](Cc1ccc(O)cc1)NC(=O)[C@H](CCC(N)=O)NC(=O)[C@@H](NC(=O)[C@H](CS)NC(=O)[C@H](Cc1ccccc1)NC(=O)[C@H](C)N(C)C(=O)[C@H](C)N)[C@@H](C)CC)[C@@H](C)CC)C(C)C)C(=O)N[C@@H](CCCCN)C(N)=O [HC191] (H-A[NMeA]FCIQYNIRSF[Nle]NVKHWPW[Nle]K-NH2; N-terminus assumed) | 1.6
CCCC[C@H](NC(=O)[C@H](Cc1c[nH]c2ccccc12)NC(=O)[C@@H]1CCCN1C(=O)[C@H](Cc1c[nH]c2ccccc12)NC(=O)[C@H](Cc1c[nH]cn1)NC(=O)[C@H](CCCCN)NC(=O)[C@@H](NC(=O)[C@H](CC(N)=O)NC(=O)[C@H](CCCC)NC(=O)[C@H](Cc1ccccc1)NC(=O)[C@H](CO)NC(=O)[C@H](CCCNC(=N)N)NC(=O)[C@@H](NC(=O)[C@H](CC(N)=O)NC(=O)[C@H](Cc1ccc(O)cc1)NC(=O)[C@H](CCC(N)=O)NC(=O)[C@@H](NC(=O)[C@H](CS)NC(=O)[C@H](Cc1ccccc1)NC(=O)[C@H]([C@@H](C)CC)N(C)C(=O)[C@H](C)N)[C@@H](C)CC)[C@@H](C)CC)C(C)C)C(=O)N[C@@H](CCCCN)C(N)=O [HC192] (H-A[NMeI]FCIQYNIRSF[Nle]NVKHWPW[Nle]K-NH2; N-terminus assumed) | 2.2
CCCC[C@H](NC(=O)[C@H](Cc1c[nH]c2ccccc12)NC(=O)[C@@H]1CCCN1C(=O)[C@H](Cc1c[nH]c2ccccc12)NC(=O)[C@H](Cc1c[nH]cn1)N(C)C(=O)[C@H](CCCCN)NC(=O)[C@@H](NC(=O)[C@H](CC(N)=O)NC(=O)[C@H](CCCC)NC(=O)[C@H](Cc1ccccc1)NC(=O)[C@H](CO)NC(=O)[C@H](CCCNC(=N)N)NC(=O)[C@@H](NC(=O)[C@H](CC(N)=O)NC(=O)[C@H](Cc1ccc(O)cc1)NC(=O)[C@H](CCC(N)=O)NC(=O)[C@@H](NC(=O)[C@H](CS)NC(=O)[C@H](Cc1ccccc1)NC(=O)[C@@H](NC(=O)[C@H](C)N)[C@@H](C)CC)[C@@H](C)CC)[C@@H](C)CC)C(C)C)C(=O)N[C@@H](CCCCN)C(N)=O [HC200] (H-AIFCIQYNIRSF[Nle]NVK[NMeH]WPW[Nle]K-NH2; N-terminus assumed) | 1.4
QEEIKNMWAAFPPDVGGNVDYKNICYVITH (Ac-QEEIKNMWAAFPPDVGGNVDYKNICYVITH-NH2) [RLC133-162] | 25
RVFDKEGNGTVMGAELRHVL (Ac-RVFDKEGNGTVMGAELRHVL-NH2) [ELC138-157] | 75
YEDFVEGLRVFDKEGN (Ac-YEDFVEGLRVFDKEGN-NH2) [ELC129-144] | ~70

Same assay, conditions: purified system; skeletal muscle myosin, factor Va 5 nM, factor Xa 0.2 nM, prothrombin 0.75 μM, 10 min; read-out: 1A (+myosin)

Molecule | IC50 [µM]
CC[C@H](C)[C@H](NC(=O)[C@H](C)N)C(=O)N[C@@H](Cc1ccccc1)C(=O)N[C@@H](CS)C(=O)N[C@H](C(=O)N[C@@H](CCC(N)=O)C(=O)N[C@@H](Cc1ccc(O)cc1)C(=O)N[C@@H](CC(N)=O)C(=O)N[C@H](C(=O)N[C@@H](CCCNC(=N)N)C(=O)N[C@@H](CO)C(=O)N[C@@H](Cc1ccccc1)C(=O)N[C@@H](CCSC)C(=O)N[C@@H](CC(N)=O)C(=O)N[C@H](C(=O)N[C@@H](C)C(=O)N[C@@H](Cc1c[nH]cn1)C(=O)N[C@@H](Cc1c[nH]c2ccccc12)C(=O)N1CCC[C@H]1C(=O)N[C@@H](Cc1c[nH]c2ccccc12)C(=O)N[C@@H](CCSC)C(=O)N[C@@H](CCCCN)C(N)=O)C(C)C)[C@@H](C)CC)[C@@H](C)CC [HC131] (H-AIFCIQYNIRSFMNVAHWPWMK-NH2; N-terminus assumed) | 2.2
CC[C@H](C)[C@H](NC(=O)[C@H](C)N)C(=O)N[C@@H](Cc1ccccc1)C(=O)N[C@@H](CS)C(=O)N[C@H](C(=O)N[C@@H](CCC(N)=O)C(=O)N[C@@H](Cc1ccc(O)cc1)C(=O)N[C@@H](CC(N)=O)C(=O)N[C@H](C(=O)N[C@@H](CCCNC(=N)N)C(=O)N[C@@H](CO)C(=O)N[C@@H](Cc1ccccc1)C(=O)N[C@@H](CCSC)C(=O)N[C@@H](CC(N)=O)C(=O)N[C@H](C(=O)N[C@@H](CCCCN)C(=O)N[C@@H](C)C(=O)N[C@@H](Cc1c[nH]c2ccccc12)C(=O)N1CCC[C@H]1C(=O)N[C@@H](Cc1c[nH]c2ccccc12)C(=O)N[C@@H](CCSC)C(=O)N[C@@H](CCCCN)C(N)=O)C(C)C)[C@@H](C)CC)[C@@H](C)CC [HC132] (H-AIFCIQYNIRSFMNVKAWPWMK-NH2; N-terminus assumed) | 3.1
CC[C@H](C)[C@H](NC(=O)[C@H](C)N)C(=O)N[C@@H](Cc1ccccc1)C(=O)N[C@@H](CS)C(=O)N[C@H](C(=O)N[C@@H](CCC(N)=O)C(=O)N[C@@H](Cc1ccc(O)cc1)C(=O)N[C@@H](CC(N)=O)C(=O)N[C@H](C(=O)N[C@@H](CCCNC(=N)N)C(=O)N[C@@H](CO)C(=O)N[C@@H](Cc1ccccc1)C(=O)N[C@@H](CCSC)C(=O)N[C@@H](CC(N)=O)C(=O)N[C@H](C(=O)N[C@@H](CCCCN)C(=O)N[C@@H](Cc1c[nH]cn1)C(=O)N[C@@H](C)C(=O)N1CCC[C@H]1C(=O)N[C@@H](Cc1c[nH]c2ccccc12)C(=O)N[C@@H](CCSC)C(=O)N[C@@H](CCCCN)C(N)=O)C(C)C)[C@@H](C)CC)[C@@H](C)CC [HC133] (H-AIFCIQYNIRSFMNVKHAPWMK-NH2; N-terminus assumed) | 1.8
CC[C@H](C)[C@H](NC(=O)[C@H](C)N)C(=O)N[C@@H](Cc1ccccc1)C(=O)N[C@@H](CS)C(=O)N[C@H](C(=O)N[C@@H](CCC(N)=O)C(=O)N[C@@H](Cc1ccc(O)cc1)C(=O)N[C@@H](CC(N)=O)C(=O)N[C@H](C(=O)N[C@@H](CCCNC(=N)N)C(=O)N[C@@H](CO)C(=O)N[C@@H](Cc1ccccc1)C(=O)N[C@@H](CCSC)C(=O)N[C@@H](CC(N)=O)C(=O)N[C@H](C(=O)N[C@@H](CCCCN)C(=O)N[C@@H](Cc1c[nH]cn1)C(=O)N[C@@H](Cc1c[nH]c2ccccc12)C(=O)N[C@@H](C)C(=O)N[C@@H](Cc1c[nH]c2ccccc12)C(=O)N[C@@H](CCSC)C(=O)N[C@@H](CCCCN)C(N)=O)C(C)C)[C@@H](C)CC)[C@@H](C)CC [HC134] (H-AIFCIQYNIRSFMNVKHWAWMK-NH2; N-terminus assumed) | 0.9
CC[C@H](C)[C@H](NC(=O)[C@H](C)N)C(=O)N[C@@H](Cc1ccccc1)C(=O)N[C@@H](CS)C(=O)N[C@H](C(=O)N[C@@H](CCC(N)=O)C(=O)N[C@@H](Cc1ccc(O)cc1)C(=O)N[C@@H](CC(N)=O)C(=O)N[C@H](C(=O)N[C@@H](CCCNC(=N)N)C(=O)N[C@@H](CO)C(=O)N[C@@H](Cc1ccccc1)C(=O)N[C@@H](CCSC)C(=O)N[C@@H](CC(N)=O)C(=O)N[C@H](C(=O)N[C@@H](CCCCN)C(=O)N[C@@H](Cc1c[nH]cn1)C(=O)N[C@@H](Cc1c[nH]c2ccccc12)C(=O)N1CCC[C@H]1C(=O)N[C@@H](C)C(=O)N[C@@H](CCSC)C(=O)N[C@@H](CCCCN)C(N)=O)C(C)C)[C@@H](C)CC)[C@@H](C)CC [HC135] (H-AIFCIQYNIRSFMNVKHWPAMK-NH2; N-terminus assumed) | 2.7
CC[C@H](C)[C@H](NC(=O)[C@H](C)N)C(=O)N[C@@H](Cc1ccccc1)C(=O)N[C@@H](CS)C(=O)N[C@H](C(=O)N[C@@H](CCC(N)=O)C(=O)N[C@@H](Cc1ccc(O)cc1)C(=O)N[C@@H](CC(N)=O)C(=O)N[C@H](C(=O)N[C@@H](CCCNC(=N)N)C(=O)N[C@@H](CO)C(=O)N[C@@H](Cc1ccccc1)C(=O)N[C@@H](CCSC)C(=O)N[C@@H](CC(N)=O)C(=O)N[C@H](C(=O)N[C@@H](CCCCN)C(=O)N[C@@H](Cc1c[nH]cn1)C(=O)N[C@@H](Cc1c[nH]c2ccccc12)C(=O)N1CCC[C@H]1C(=O)N[C@@H](Cc1c[nH]c2ccccc12)C(=O)N[C@@H](C)C(=O)N[C@@H](CCCCN)C(N)=O)C(C)C)[C@@H](C)CC)[C@@H](C)CC [HC136] (H-AIFCIQYNIRSFMNVKHWPWAK-NH2; N-terminus assumed) | 1.6
CC[C@H](C)[C@H](NC(=O)[C@H](C)N)C(=O)N[C@@H](Cc1ccccc1)C(=O)N[C@@H](CS)C(=O)N[C@H](C(=O)N[C@@H](CCC(N)=O)C(=O)N[C@@H](Cc1ccc(O)cc1)C(=O)N[C@@H](CC(N)=O)C(=O)N[C@H](C(=O)N[C@@H](CCCNC(=N)N)C(=O)N[C@@H](CO)C(=O)N[C@@H](Cc1ccccc1)C(=O)N[C@@H](CCSC)C(=O)N[C@@H](CC(N)=O)C(=O)N[C@H](C(=O)N[C@@H](CCCCN)C(=O)N[C@@H](Cc1c[nH]cn1)C(=O)N[C@@H](Cc1c[nH]c2ccccc12)C(=O)N1CCC[C@H]1C(=O)N[C@@H](Cc1c[nH]c2ccccc12)C(=O)N[C@@H](CCSC)C(=O)N[C@@H](C)C(N)=O)C(C)C)[C@@H](C)CC)[C@@H](C)CC [HC137] (H-AIFCIQYNIRSFMNVKHWPWMA-NH2; N-terminus assumed) | 5.5
CCCC[C@H](NC(=O)[C@H](Cc1c[nH]c2ccccc12)NC(=O)[C@@H]1CCCN1C(=O)[C@H](Cc1c[nH]c2ccccc12)NC(=O)[C@H](Cc1c[nH]cn1)NC(=O)[C@H](CCCCN)NC(=O)[C@@H](NC(=O)[C@H](CC(N)=O)NC(=O)[C@H](CCCC)NC(=O)[C@H](Cc1ccccc1)NC(=O)[C@H](CO)NC(=O)[C@H](CCCNC(=N)N)NC(=O)[C@@H](NC(=O)[C@H](CC(N)=O)NC(=O)[C@H](Cc1ccc(O)cc1)NC(=O)[C@H](CCC(N)=O)NC(=O)[C@@H](NC(=O)[C@H](CS)NC(=O)[C@H](Cc1ccccc1)NC(=O)[C@@H](NC(=O)[C@H](C)NC)[C@@H](C)CC)[C@@H](C)CC)[C@@H](C)CC)C(C)C)C(=O)N[C@@H](CCCCN)C(N)=O [HC190] (H-[NMeA]IFCIQYNIRSF[Nle]NVKHWPW[Nle]K-NH2; N-terminus assumed) | 3.6
